# Results reported in US20230212222A1 (ANYGEN CO., LTD., priority 2020, published 2023).
# Square brackets hold non-standard residues; d marks the D form. Peptide text beside a SMILES is read from it. * marks the point of attachment. His(Trt) = N[C@@H](Cc1cn(C(c2ccccc2)(c2ccccc2)c2ccccc2)cn1)C(=O)O; dHis(Trt) = N[C@H](Cc1cn(C(c2ccccc2)(c2ccccc2)c2ccccc2)cn1)C(=O)O; His(τ-CHPh2) = N[C@@H](Cc1cn(C(c2ccccc2)c2ccccc2)cn1)C(=O)O; Biotin = O=C1N[C@H]2[C@H](CS[C@H]2CCCCC(=O)*)N1; sY = N[C@@H](Cc1ccc(OS(=O)(=O)O)cc1)C(=O)O; Bip = N[C@@H](Cc1ccc(-c2ccccc2)cc1)C(=O)O; dPhe(4-Cl) = N[C@H](Cc1ccc(Cl)cc1)C(=O)O; dPhe(4-Me) = Cc1ccc(C[C@@H](N)C(=O)O)cc1; Myristoyl = CCCCCCCCCCCCCC(=O)*; Decanoyl = CCCCCCCCCC(=O)*; Octanoyl = CCCCCCCC(=O)*
# What was measured:
# [1] = biological target: T1, GPR39 (Homo sapiens, UniProt O43194)
# T1 sequence (O43194 1-453): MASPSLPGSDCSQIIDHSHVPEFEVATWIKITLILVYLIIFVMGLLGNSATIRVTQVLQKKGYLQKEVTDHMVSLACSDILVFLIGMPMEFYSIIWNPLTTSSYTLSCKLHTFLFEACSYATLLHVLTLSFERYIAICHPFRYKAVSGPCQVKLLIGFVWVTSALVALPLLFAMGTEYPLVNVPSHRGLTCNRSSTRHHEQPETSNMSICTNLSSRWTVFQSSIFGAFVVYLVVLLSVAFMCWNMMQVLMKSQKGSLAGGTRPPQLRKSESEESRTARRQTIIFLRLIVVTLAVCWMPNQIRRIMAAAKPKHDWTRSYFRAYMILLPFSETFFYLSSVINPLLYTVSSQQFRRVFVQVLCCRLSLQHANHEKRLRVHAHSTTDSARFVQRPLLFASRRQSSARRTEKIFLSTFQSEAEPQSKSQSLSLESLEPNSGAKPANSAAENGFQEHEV
# Procedure: (§1) Specifically, the fibroblast cell line CV-1 (1×10^5 cells/ml, Korea Cell Line Bank) was cultured in a 96 well cell culture plate for 24 hours, and then treated with GPR39 inserted into adenovirus and SRE (serum response element) luciferase at 50 MOI (multiplicity of infection) and 25 MOI virus for 3 hours, respectively, and then cultured for 24 hours.
# [2] = biological target: T1, GPR39; test: luciferase assay system (SRE luciferase reporter gene) for GPR39 in CV-1 cells; details: for EC50: EC50, CV-1 cells, GPR39 and SRE luciferase adenovirus, treated 6 hours, luminometer
# Procedure: as §1
SMILES,ECmax (-fold induction over basal) [1],EC50 [2],ECmax value (in words) ([2]; comment on Table 3),"activity level for GPR39 (in words) ([2]; comment on Table 3, listed as HIKFY-30)","activity level for GPR39 (in words) ([2]; comment on Table 3, listed as HJKFY-30)",activity level for GPR39 (in words) ([2]; comment on Table 3)
"CCCCCCCC(=O)NCCCC[C@H](NC(=O)[C@@H](N)Cc1cn(C(c2ccccc2)(c2ccccc2)c2ccc(C)cc2)cn1)C(=O)N[C@@H](Cc1ccccc1)C(=O)N[C@@H](Cc1ccc(O)cc1)C(=O)O [HKFY-5, N2-(Nt-(diphenyl(p-tolyl)methyl)-L-histidyl)-N6-octanoyl-L-lysyl-L-phenylalanyl-L-tyrosine]",16 ± 1.7 -fold induction over basal,1840 ± 200 nM,–,–,–,–
"CCCCCCCC(=O)NCCCC[C@H](NC(=O)[C@H](N)Cc1cn(C(c2ccccc2)(c2ccccc2)c2ccccc2)cn1)C(=O)N[C@H](Cc1ccc(Cl)cc1)C(=O)N[C@H](Cc1ccc(O)cc1)C(=O)O [HKFY-14, ((R)-2-((S)-2-((R)-2-amino-3-(1-trityl-1H-imidazol-4-yl)propanamido)-6-octanamidohexanamido)-3-(4-chlorophenyl)propanoyl)-D-tyrosine] (H-[dHis(Trt)]K(Octanoyl)[dPhe(4-Cl)][dY]-OH)",20.9 ± 1.4 -fold induction over basal,20 ± 3 nM,–,–,–,–
"CCCCCCCC(=O)NCCCC[C@@H](NC(=O)[C@@H](N)Cc1cn(C(c2ccccc2)(c2ccccc2)c2ccccc2)cn1)C(=O)N[C@H](Cc1ccc(Cl)cc1)C(=O)N[C@@H](Cc1ccc(O)cc1)C(=O)O [HKFY-16, ((R)-2-((R)-2-((S)-2-amino-3-(1-trityl-1H-imidazol-4-yl)propanamido)-6-octanamidohexanamido)-3-(4-chlorophenyl)propanoyl)-L-tyrosine] (H-[His(Trt)][dK](Octanoyl)[dPhe(4-Cl)]Y-OH)",27.9 ± 3.4 -fold induction over basal,240 ± 20 nM,–,–,–,–
"CCCCCCCCCC(=O)NCCCC[C@H](NC(=O)[C@@H](N)Cc1cn(C(c2ccccc2)(c2ccccc2)c2ccccc2)cn1)C(=O)N[C@@H](Cc1ccccc1)C(=O)N[C@@H](Cc1ccc(O)cc1)C(=O)O [HKFY-24, N6-decanoyl-N2-(Nt-trityl-L-histidyl)-L-lysyl-L-phenylalanyl-L-tyrosine] (H-[His(Trt)]K(Decanoyl)FY-OH)",7.03 ± 0.57 -fold induction over basal,240 ± 70 nM,–,–,–,–
"CCCCCCCCCCCCCC(=O)NCCCC[C@H](NC(=O)[C@@H](N)Cc1cn(C(c2ccccc2)(c2ccccc2)c2ccccc2)cn1)C(=O)N[C@@H](Cc1ccccc1)C(=O)N[C@@H](Cc1ccc(O)cc1)C(=O)O [HKFY-26, N6-tetradecanoyl-N2-(Nt-trityl-L-histidyl)-L-lysyl-L-phenylalanyl-L-tyrosine] (H-[His(Trt)]K(Myristoyl)FY-OH)",19.82 ± 0.57 -fold induction over basal,280 ± 20 nM,–,–,–,–
"CCCCCCCC(=O)NCCCC[C@H](NC(=O)[C@@H](N)Cc1cn(C(c2ccccc2)(c2ccccc2)c2ccccc2)cn1)C(=O)N[C@H](Cc1ccc(C)cc1)C(=O)N[C@@H](Cc1ccc(O)cc1)C(=O)O [HKFY-30, ((R)-2-((S)-2-((S)-2-amino-3-(1-trityl-1H-imidazol-4-yl)propanamido)-6-octanamidohexanamido)-3-(p-tolyl)propanoyl)-L-tyrosine] (H-[His(Trt)]K(Octanoyl)[dPhe(4-Me)]Y-OH)",23.88 ± 3.04 -fold induction over basal,8 ± 1 nM,high ECmax value,most excellent activity,higher activity level than other HJKFY derivatives,–
"CCCCCCCC(=O)NCCCC[C@H](NC(=O)[C@H](N)Cc1cn(C(c2ccccc2)(c2ccccc2)c2ccccc2)cn1)C(=O)N[C@H](Cc1ccc(C)cc1)C(=O)N[C@@H](Cc1ccc(O)cc1)C(=O)O [HKFY-31, ((R)-2-((S)-2-((R)-2-amino-3-(1-trityl-1H-imidazol-4-yl)propanamido)-6-octanamidohexanamido)-3-(p-tolyl)propanoyl)-L-tyrosine] (H-[dHis(Trt)]K(Octanoyl)[dPhe(4-Me)]Y-OH)",20.9 ± 2.51 -fold induction over basal,20 ± 3 nM,–,–,–,–
"CCCCCCCC(=O)NCCCC[C@H](NC(=O)[C@@H](N)Cc1cn(C(c2ccccc2)c2ccccc2)cn1)C(=O)N[C@@H](Cc1ccccc1)C(=O)N[C@@H](Cc1ccc(O)cc1)C(=O)O [HKFY-33, N2-(Nt-benzhydryl-L-histidyl)-N6-octanoyl-L-lysyl-L-phenylalanyl-L-tyrosine] (H-[His(τ-CHPh2)]K(Octanoyl)FY-OH)",20 ± 0.57 -fold induction over basal,150 ± 70 nM,–,–,–,–
"CCCCCCCC(=O)NCCCC[C@H](NC(=O)[C@@H](N)Cc1cn(C(c2ccccc2)c2ccccc2)cn1)C(=O)N[C@H](Cc1ccc(C)cc1)C(=O)N[C@@H](Cc1ccc(OS(=O)(=O)O)cc1)C(=O)O [HKFY-35, (S)-2-((R)-2-((S)-2-((S)-2-amino-3-(1-benzhydryl-1H-imidazol-4-yl)propanamido)-6-octanamidohexanamido)-3-(p-tolyl)propanamido)-3-(4-(sulfooxy)phenyl)propanoic acid] (H-[His(τ-CHPh2)]K(Octanoyl)[dPhe(4-Me)][sY]-OH)",18.9 ± 0.41 -fold induction over basal,280 ± 70 nM,–,–,–,–
"CCCCCCCC(=O)NCCCC[C@H](NC(=O)[C@H](Cc1cn(C(c2ccccc2)(c2ccccc2)c2ccccc2)cn1)NC(=O)[C@H](CO)NC(=O)CN)C(=O)N[C@@H](Cc1ccccc1)C(=O)N[C@@H](Cc1ccc(O)cc1)C(=O)O [HKFY-37, N2-(Na-glycyl-L-seryl-Nt-trityl-L-histidyl)-N6-octanoyl-L-lysyl-L-phenylalanyl-L-tyrosine] (H-GS[His(Trt)]K(Octanoyl)FY-OH)",16 ± 1.7 -fold induction over basal,1840 ± 200 nM,–,–,–,–
"CCCCCCCC(=O)NCCCC[C@H](NC(=O)[C@H](Cc1cn(C(c2ccccc2)(c2ccccc2)c2ccccc2)cn1)NC(=O)CCCC[C@@H]1SC[C@@H]2NC(=O)N[C@@H]21)C(=O)N[C@@H](Cc1ccc(-c2ccccc2)cc1)C(=O)N[C@@H](Cc1ccc(O)cc1)C(=O)O [HKFY-45, ((S)-3-([1,1′-biphenyl]-4-yl)-2-((S)-6-octanamido-2-((S)-2-(5-((3aS,4S,6aR)-2-oxohexahydro-1H-thieno[3,4-d]imidazol-4-yl)pentanamido)-3-(1-trityl-1H-imidazol-4-yl)propanamido)hexanamido)propanoyl)-L-tyrosine] (Biotin-[His(Trt)]K(Octanoyl)[Bip]Y-OH)",21 ± 2.58 -fold induction over basal,140 ± 50 nM,–,–,–,–

# Now from value to molecule, other results behind:
ECmax (-fold induction over basal) [1],EC50 [2],ECmax value (in words) ([2]; comment on Table 3),"activity level for GPR39 (in words) ([2]; comment on Table 3, listed as HIKFY-30)",SMILES,"activity level for GPR39 (in words) ([2]; comment on Table 3, listed as HJKFY-30)",activity level for GPR39 (in words) ([2]; comment on Table 3)
20 ± 0.28 -fold induction over basal,260 ± 150 nM,–,–,"CCCCCCCC(=O)NCCCC[C@H](NC(=O)[C@@H](N)Cc1cn(C(c2ccccc2)(c2ccccc2)c2ccccc2)cn1)C(=O)N[C@@H](Cc1ccccc1)C(=O)N[C@@H](Cc1c[nH]c2ccccc12)C(=O)O [HKFY-46, N6-octanoyl-N2-(Nt-trityl-L-histidyl)-L-lysyl-L-phenylalanyl-L-tryptophan] (H-[His(Trt)]K(Octanoyl)FW-OH)",–,–
8.5 ± 2.3 -fold induction over basal,260 ± 10 nM,–,–,"CCCCCCCC(=O)NCCCC[C@H](NC(=O)[C@@H](N)Cc1c[nH]c(-c2ccccc2)n1)C(=O)N[C@H](Cc1ccc(C)cc1)C(=O)N[C@@H](Cc1ccc(O)cc1)C(=O)O [HKFY-57, ((R)-2-((S)-2-((S)-2-amino-3-(2-phenyl-1H-imidazol-4-yl)propanamido)-6-octanamidohexanamido)-3-(p-tolyl)propanoyl)-L-tyrosine]",–,–
9.12 ± 2.1 -fold induction over basal,20 ± 2 nM,–,–,"CCCCCCCC(=O)NCCCC[C@H](NC(=O)[C@@H](N)Cc1cn(-c2ccccc2)cn1)C(=O)N[C@H](Cc1ccc(C)cc1)C(=O)N[C@@H](Cc1ccc(O)cc1)C(=O)O [HKFY-58, ((R)-2-((S)-2-((S)-2-amino-3-(1-phenyl-1H-imidazol-4-yl)propanamido)-6-octanamidohexanamido)-3-(p-tolyl)propanoyl)-L-tyrosine]",–,–
9.88 ± 1.8 -fold induction over basal,20 ± 3 nM,–,–,"CCCCCCCC(=O)NCCCC[C@H](NC(=O)[C@@H](N)Cc1cn(-c2ccc(C(C)(C)C)cc2)cn1)C(=O)N[C@H](Cc1ccc(C)cc1)C(=O)N[C@@H](Cc1ccc(O)cc1)C(=O)O [HKFY-61, ((R)-2-((S)-2-((S)-2-amino-3-(1-(4-(tert-butyl)phenyl)-1H-imidazol-4-yl)propanamido)-6-octanamidohexanamido)-3-(p-tolyl)propanoyl)-L-tyrosine]",–,–
13.5 ± 1.8 -fold induction over basal,–,–,–,"CCCCCCCC(=O)NCCCC[C@H](NC(=O)[C@@H](N)Cc1c[nH]c(-c2cccs2)n1)C(=O)N[C@H](Cc1ccc(C)cc1)C(=O)N[C@@H](Cc1ccc(O)cc1)C(=O)O [HKFY-63, ((R)-2-((S)-2-((S)-2-amino-3-(2-(thiophen-2-yl)-1H-imidazol-4-yl)propanamido)-6-octanamidohexanamido)-3-(p-tolyl)propanoyl)-L-tyrosine]",–,higher activity level than other HJKFY derivatives
16 ± 1.5 -fold induction over basal,7 ± 1 nM,–,–,"CCCCCCCC(=O)NCCCC[C@H](NC(=O)[C@@H](N)Cc1cn(C(c2ccccc2)c2ccc(OC)cc2)cn1)C(=O)N[C@H](Cc1ccc(C)cc1)C(=O)N[C@@H](Cc1ccc(O)cc1)C(=O)O (stereo partly drawn) [HKFY-64, ((2R)-2-((2S)-2-((2S)-2-amino-3-(1-((4-methoxyphenyl)(phenyl)methyl)-1H-imidazol-4-yl)propanamido)-6-octanamidohexanamido)-3-(p-tolyl)propanoyl)-L-tyrosine]",–,higher activity level than other HJKFY derivatives
